Test results taken from US8575092B2, “Gelling hydrophobic injectable polymer compositions” (Efrat Biopolymers Ltd., priority 2005, dated 2013).

Key:
[1] = Solubility of bupivacaine free base in the polymer; type: physicochemical
Experimental: Bupivacaine free base (5, 7, 10% w/w) was incorporated in the liquid polymers by mixing the drug powder in the polymer at 40° C. and filling 1 ml syringe with this formulation. This formulation is a semi-solid at room temperature and liquid at body temperature. […] The free base bupivacaine formed a clear solution in the polymer while the HCl salt was a fine dispersion.
Bupivacaine was incorporated in the polymer without affecting the polymer molecular weight, as confirmed by GPC. Bupivacaine free base (BFB) is easily soluble in P(SA-RA) up to 15% w/w BFB. The hydrochloride salt dispersed well in the polymer without affecting its viscosity at least up to 15% w/w loading. P(SA-RA) 2:8 and 3:7 formulations containing 5% and 7% of bupivacaine constantly released the drug at a first order profile with about 60% of the incorporated drug was released during 7 days in buffer, formulation containing 10% released approximately 70% of its content during this period. For all experiments, the higher MW polymers (Mw=18,000) release the drug at a slower rate, between 10 and 20% less the amount released at each time point, compared to the low MW polymers (Mw=5,000).

[2] = mouse
Experimental: Inbred 8-10 week old female C3H mice, weighing about 20 g (Harlan Laboratories, Israel) were kept under specific pathogen free (SPF) conditions and given free access to irradiated sterile food and acidified water throughout the experiment. Blank polymer and pasty formulations containing paclitaxel (5% and 10% w/w) were injected subcutaneously to the backspace via a 23G needle into 12 groups of four C3H mice in each group. […] After 1, 7, 21 and 70 days, mice were sacrificed by cervical dislocation. The polymer implant was taken out, weighed before and after lyophilization and examined for paclitaxel content in the remaining formulation.

[3] = system: S. aureus; experiment: Minimum inhibitory concentration of gentamicin; type: cell-based; details: S. aureus used in this study
Experimental: The minimum inhibitory concentration of gentamicin for the S. aureus used in this study is 2-4 μg/ml. […] No effect was found in these wells: the O.D. was approximately 0.7. In the wells that contained S. aureus in TSB only, O.D. of approximately 0.6 was found. In view of the results of gentamicin release (FIG. 14) and the profound bacterial inhibition by the diluted solutions (FIG. 15), there is probably a significant antibacterial activity in the release medium at an earlier stage.

CCCCN1CCCCC1C(=O)Nc1c(C)cccc1C (stereo not drawn) [BFB, Bupivacaine]
solubility in P(SA-RA) [1]: up to 15 % w/w

Poly(sebacic acid-co-ricinoleic acid ester anhydride) 2:8 [P(SA:RA) (2:8)]
in vivo degradation [2]: completely degraded

gentamicin
minimum inhibitory concentration [3]: 2 to 4 mg/L
